Assay results reported in patent publication US7320973B2, “Dihydrodiaryloxazepine derivative and pharmaceutical composition containing the same” (Ajinomoto Co., Inc., priority 2001, dated 2008).
Structures can show the parent of a compound that is named as a salt.

Key:
[1] = system: 5-HTP-induced defecation (diarrhea or loose stool); test: In vivo 5-hydroxytryptophan (5-HTP)-induced defecation model of mice; set-up: species or system mouse; conditions: oral administration 30 minutes before 5-HTP 10 mg/kg s.c., fecal score over 30 minutes
Description: The tests were conducted by a method of G. J. Sanger et al. (British Journal of Pharmacology, 130: 706-712, 2000).
Male SLC:ICR mice (6 weeks old) were moved to 5stainless steel cages connected together for mice. After the naturalization for at least one hour, a test compound was orally administered (n=10). 30 minutes after, 10 mg/5 mL/kg of 5-HTP or vehicle (5mL/kg of physiological saline for a group for which 5-HTP was not used) was injected subcutaneously. The state of the fecal pellets of each mouse excreted in 30 minutes immediately after the injection was observed [scored as 0 (normal fecal pellets or no fecal pellets) or 1(diarrhea or loose stool)]. The score obtained by subtracting the score of the group to which 5-HTP had not been given from the score of the group to which 5-HTP had been given was taken as 100%. The amount of a test compound for 50% control (ID50) was calculated.

[2] = system: abdominal pain threshold on colorectal distension; test: Elevation of threshold value of abdominal pain in in vivo rat colorectal distension model; conditions: rats, oral administration
Description: The tests were conducted by a method of Saito et al. (Anesth. Analg. 1998; 87: 382-387).
Male Crj:CD rats (250-350 g) were used. A test compound was orally administered to them (n=8). A balloon (length: 7 cm) for dilating the colon was connected to a transducer . After fasting each rat for one day, the balloon was noninvasively inserted internally into the colorectal portion and the base of the balloon was positioned 1 cm from anus under light anesthesia with ether. Water was injected into the balloon at a rate of 0.9 ml/min until the inner pressure in the balloon reached 100 mmHg (cut off value). When the contraction of the abdominal muscle was macroscopically observed during the colon distension, the pressure in the balloon was taken as the threshold value of abdominal pain. The colon distension was conducted at intervals of at least 5 minutes.
The analgesic effect was determined according to the following formula: Analgesic effect (%)=[(threshold value of abdominal pain after treatment with test compound)−(threshold value of abdominal pain before treatment with test compound)]/[100−(threshold value of abdominal pain before treatment with test compound)]×100.
The analgesic effect was calculated as the dose of the test compound required for 50% control (ID50).

Compound	ID50 (5-HTP-induced defecation) [1] [mg/kg]	ID50 (analgesic effect, threshold value of abdominal pain) [2] [mg/kg]
CN(C)c1ccc(CCN2CCC[C@@H]2CN2c3cc(Cl)ccc3COc3ccccc32)cc1 [Example 8, (R)-3-Chloro-5,11-dihydro-5-[1-(4-dimethylaminophenethyl)pyrrolidin-2-ylmethyl]dibenzo[b,e][1,4]oxazepine dihydrochloride]	8.3	2.6
Fc1ccc2c(c1)OCc1ccccc1N2C[C@H]1CCCN1CCc1ccc(N2CCCC2)cc1 [Example 12, (R)-8-Fluoro-5,11-dihydro-5-[1-(4-pyrrolidinophenethyl)pyrrolidin-2-yl-methyl]dibenzo[b,e]1,4]oxazepine dihydrochloride]	–	1.9
